According to patent publication US8394404B2, “Adhesive material and adhesive preparation” (Nitto Denko Corporation, priority 2004, dated 2013):
Entries after “also recorded” stand apart in the source; their conditions may differ.

Experiment: in vitro permeability test using the skin removed from a mouse
Format: in vitro ADME
Conditions: adhesive preparation of the adhesive material of Example 3 with adhesive layer containing 5% ISDN
Protocol: Thus, the adhesive preparation of the present invention is useful as a percutaneously absorbable adhesive preparation for continuous administration of a drug into the body.
An adhesive preparation comprising the adhesive material of the above-mentioned Example 3, which has an adhesive layer containing 5% isosorbide dinitrate (ISDN) was prepared and subjected to an in vitro permeability test using the skin removed from a mouse.

SMILES: O=[N+]([O-])O[C@H]1CO[C@H]2[C@@H]1OC[C@H]2O[N+](=O)[O-] [ISDN, isosorbide dinitrate]
- percutaneous absorption of ISDN: percutaneous absorbability of ISDN was confirmed; also recorded: percutaneous absorption of ISDN was confirmed
